The numbers were not newly measured in article PMC3688238, “The effect of different dosing regimens of motesanib on the gallbladder: a randomized phase 1b study in patients with advanced solid tumors” (BMC Cancer, 2013), which cites them from elsewhere.

Like-named read-outs stand apart in the source and are kept apart here.

The test system of the series is gallbladder. As to conditions: cited from earlier work.

`CNC(=O)c1cc(Oc2ccc(NC(=O)Nc3ccc(Cl)c(C(F)(F)F)c3)cc2)ccn1` [Sorafenib]: the Adverse events reported result runs as follows: (case report, ref Sanda et al. [20]) “Right upper abdominal pain, gallbladder edema, acute acalculous cholecystitis”; (ref Nexavar European public assessment report [26]) “Cholecystitis, cholangitis”; (ref Nexavar US prescribing information [25]) “Cholecystitis, cholangitis”.

For the molecule `COc1cc2c(Oc3ccc4[nH]c(C)cc4c3F)ncnc2cc1OCCCN1CCCC1` [Cediranib], the Adverse events reported entry by setting is: (phase 1 study, ref Laurie et al. [21]) “Acute cholecystitis”; (phase 2 study, ref Batchelor et al. [22]) “Gallbladder obstruction, abdominal pain”.

In the case of `CCN(CC)CCNC(=O)c1c(C)[nH]c(/C=C2\C(=O)Nc3ccc(F)cc32)c1C` [Sunitinib], the Adverse events reported entry runs as follows: (case report, ref De Lima Lopes, Jr., et al. [18]) “Acute emphysematous cholecystitis, right upper abdominal pain, gallbladder distension”; (case report, ref Gomez-Abuin et al. [19]) “Acute acalculous cholecystitis, right upper abdominal pain, gallbladder wall thickening”; (single-arm study, ref Motzer et al. [17]) “Acute cholecystitis”.

As to `Cc1ccc(NC(=O)c2ccc(CN3CCN(C)CC3)cc2)cc1Nc1nccc(-c2cccnc2)n1` [Imatinib], the Adverse events reported entry (case report, ref Breccia et al. [37]) was “Gallstones, gallbladder wall thickening, abdominal pain”; the Adverse events reported result (phase 1 study, ref Grant et al. [24]) was “Cholecystitis”; the Adverse events reported result (single-arm study, ref Yeh et al. [23]) is given as “Gallstones”.
